Patent US9855310B2, “Coix seed oil containing 8 triglycerides, and pharmaceutical preparation and use thereof” (ZHEJIANG KANGLAITE GROUP CO., LTD., priority 2014, dated 2018)
≈ marks a conversion by molar mass, not a printed value. Counter-ions that a name gives are not always drawn. Marks after values point to notes of the source that are not given here. One block for each compound: values may come before it.

Experiments:
QGY human hepatoma = test: Growth of QGY human hepatoma transplanted in nude mice; conditions: ip × 7qd
Experimental: A549 Human lung cancer cells cryopreserved in liquid nitrogen were recovered, and incubated in a 37 incubator under 5% CO2. After being subcultured, cells in a logarithmic growth stage were distributed with normal saline to be a cell suspension in a concentration of 1-2×10^7 cells/ml. The cell suspension was inoculated into BALB/C nude mice (SPF grade, 18-20 g, 6 weeks old, male) subcutaneously at right axillary. The tumor tissues were aseptically taken from the 2nd generation of xenograft model of A549 human lung cancer in a vigorous growth stage and cut into small uniform pieces in the size of 1-2 mm^3. The right axillary of each nude mouse was inoculated one piece subcutaneously via a trocar. When the inoculated tumor could be touched, the mice were randomly grouped and administered according to the experimental design program. All contacted feed, padding, cages and equipment, etc., should be autoclaved prior to use. The nude mice were fed in a laminar flow rack. Tumor sizes and animal weights were observed and tested dynamically. Mice in each group were sacrificed 3 weeks later or so, and tumors were surgically removed and weighed.
(§3) Q value of antitumor effect in drug combination was calculated according to Jin's formula: Q=Ea+b/(Ea+Eb−Ea×Eb) Wherein Ea+b=the tumor inhibition rate of drug combination, Ea or Eb=the tumor inhibition rate of drug A or drug B, respectively.
QGY human hepatoma cells cryopreserved in liquid nitrogen were recovered, and incubated in a 37 incubator under 5% CO2.

A549 human lung cancer = test: Growth of A549 human lung cancer transplanted in nude mice; assay type: in vivo, BALB/C nude mice; conditions: ip × 7qd
Experimental: The injection of the invention (10 g/100 ml), Cisplatin (Qilu Pharmaceutical Co., Ltd), blank fat emulsion and normal saline

S180 sarcoma = S180 sarcoma transplanted in mice; assay type: in vivo, Kunmin mice; conditions: ip × 2(1, 3)
Experimental: The injection of the invention (10 g/100 ml), Cyclophosphamide (CTX), Mitoxantrone (DHAD), Mitomycin (MMC) and normal saline
Each mouse was inoculated with 0.2 ml of the suspension subcutaneously at the right axilla, and the mice were grouped randomly. The administration began from the next day according to the dosage program in Table 7. […] Weights of tumor were compared and inhibition rates were calculated for each group.

[1] = tested on: Bcap-37 human breast cancer; test: Bcap-37 human breast cancer transplanted in nude mice; assay type: in vivo, BALB/C nude mice; conditions: 25 mg/kg, ip × 1
Experimental: The injection of the invention (10 g/100 ml), Docetaxel injection (Taxotere, 20 mg/vial) and normal saline
Bcap-37 human breast cancer: inoculated in BALB/C nude mice (SPF grade), 18-20 g, female
(§1) Tumor blocks of well-grown Bcap-37 human breast cancer were homogenized in normal saline to obtain cell suspensions in the concentration of 1-2×10^7 cells/ml. Each nude mouse was inoculated with 0.2 ml of the suspension at the right axilla subcutaneously, and the mice were grouped randomly. The administration began from the 7th day after the inoculation. 20 Days after the inoculation, the mice were sacrificed. Tumor blocks were taken out and weighed. Differences of tumor weight between each experimental group and the control group were compared, and tumor inhibition rates and Q values were calculated.

[2] = tested on: PANC-1 human pancreatic cancer; test: PANC-1 human pancreatic cancer transplanted in nude mice; assay type: in vivo, BALB/C nude mice; conditions: 60 mg/kg, iv × 1
Experimental: as §3
Tumor blocks of well-grown PANC-1 human pancreatic cancer were inoculated subcutaneously in 4-week-old female BALB/C nude mice. The nude mice were grouped randomly and administered. One week after the end of the administration, the mice were sacrificed and dissected. Tumor blocks were taken out and weighed. Differences of tumor weight between each experimental group and the control group were compared and the tumor inhibition rates were calculated.

[3] = tested on: FC-3M human prostate cancer; test: FC-3M human prostate cancer transplanted in nude mice; assay type: in vivo, BALB/C nude mice; conditions: iv × 1
Experimental: The injection of the invention (10 g/100 ml), Leuprolide acetate (Lupron) and normal saline
Tumor blocks of well-grown FC-3M human prostate cancer were homogenized in normal saline (1:4). Each nude mouse was inoculated with 0.2 ml of the suspension at the right axilla subcutaneously, and the mice were grouped randomly. The administration began from the next day. 21 Days after the inoculation, the mice were sacrificed. Tumor blocks were taken out and weighed. Differences of tumor weight between each experimental group and the control group were compared and the tumor inhibition rates were calculated.

[4] = tested on: MDA-MB-435 human breast cancer; test: MDA-MB-435 human breast cancer transplanted in nude mice; assay type: in vivo, BALB/C nude mice; conditions: 50 mg/kg, ip × 1
Experimental: as §1, with “Each” for “Tumor blocks of well-grown Bcap-37 human breast cancer were homogenized in normal saline to obtain cell suspensions in the concentration of 1-2×10^7 cells/ml. Each”, “18” for “20”

[5] = tested on: H460 (human lung cancer cells); test: Inhibition on human tumor cell lines in MTT method in vitro; assay type: cell-based; conditions: NCI-H460
Source text: (§2) (1) Cell lines: PANC-1 (human pancreatic cancer cells), SKOV3 (human ovarian cancer cells), MCF-7 (human breast cancer cells), Bcap-37 (human breast cancer cells), SMMC-7721 (human hepatic cancer cells), HepG-2 (human hepatic cancer cells), A549 (human lung cancer cells) and H460 (human lung cancer cells), storaged and passaged maintainably in Research and Evaluation Center for Pharmacology, Shanghai Institute of Pharmaceutical Industry; The inhibition effects of samples on the above-mentioned cell lines were detected by using MTT method. The specific procedures were as follows: (1) Cell culture: (a) Storaged cells were taken out from the liquid nitrogen, thawed quickly in a 37 water bath, then aseptically transferred into 6 ml of cellular medium in a 10 ml centrifugal tube, and centrifuged at 1000 rpm for 5 min. The supernatant was discarded, then the precipitated cells were re-suspensed in 5-6 ml cellular media by pipetting and transferred into a flask in a 37 incubator for cell culture; (b) Next day, the flask was taken out from the incubator and the used medium was discarded, then the cells were incubated in 5-6 ml fresh medium in the 37 incubator; (c) On the third day, the flask was taken out from the incubator and the used medium was discarded, then 2-3 ml of PBS (pH7.4) was added into the flask with rocking for cleaning it and the used PBS was discarded. […] The flask was capped and placed in a 37 incubator for about 3 min, and the separation of cells from the flask wall was observed under the microscope. 2 ml of cellular medium was added and cells were separated completely from the flask wall by pipetting, then the cell suspension was transferred into 2 separate clean flasks, each containing 5-6 ml medium. The cell suspension was well-distributed by pipetting, then the flask was placed in a 37 incubator. (d) Step (c) was repeated every other day. In the whole cultivation process, adherent cells were not allowed to grow too dense and suspension cells were always maintained at a logarithmic growth stage. (2) Preparation of the sample and the control: A proper amount of sample of Coix seed oil (oil of Job's tears seed) was dissolved in DMSO to obtain a solution in a concentration of 10 mg/ml. […] The correspondingly diluted DMSO solutions, as controls, were added into the wells of the microplate. (4) Cells in a logarithmic growth stage were trypsinized and washed, then re-suspended in the medium containing 10% calf serum. The number of living cells was counted in Trypan blue dye exclusion method and cell suspensions were adjusted into a density of 2×10^5 cell/ml. (5) The cell-contained 96 well flat-bottom microplate was placed in a 37 incubator and cells were incubated under 5% CO2 for 48 h. (6) 20 μl of 5 mg/ml MTT solution was added into each well and cells were incubated continuously in the incubator for 3-4 h. (7) 100 μl of crystal dissolving solution was added into each well and cells were incubated continuously in the incubator overnight, so as to dissolve the resulted formazan crystals sufficiently. Then, the absorbance value was measured at 570 nm for each well. […] The calculation formula was as follows: (1−mean absorbance of experimental wells/mean absorbance of control wells)×100%

[6] = tested on: A549 (human lung cancer cells); test: as above; assay type: cell-based
Source text: as §2

[7] = tested on: PANC-1 (human pancreatic cancer cells); test: as above; assay type: cell-based
Source text: as §2

[8] = tested on: HepG-2 (human hepatic cancer cells); test: as above; assay type: cell-based; conditions: HepG2
Source text: as §2

[9] = tested on: SMMC-7721 (human hepatic cancer cells); test: as above; assay type: cell-based
Source text: as §2

[10] = tested on: MCF-7 (human breast cancer cells); test: as above; assay type: cell-based; conditions: MCF7
Source text: as §2

[11] = tested on: SKOV3 (human ovarian cancer cells); test: as above; assay type: cell-based; conditions: SK-OV-3
Source text: as §2

[12] = tested on: Bcap-37 (human breast cancer cells); test: as above; assay type: cell-based; conditions: Bcap37
Source text: as §2

LM-3 human hepatoma = LM-3 human hepatoma transplanted in nude mice; conditions: ip × 7qd
Source text: When the inoculated tumor could be touched, the mice were randomly grouped and administered according to the experimental design program. All contacted feed, padding, cages and equipment, etc., should be autoclaved prior to use. The nude mice were fed in a laminar flow rack. Tumor sizes and animal weights were observed and tested dynamically. Mice in each group were sacrificed 3 weeks later or so, and tumors were surgically removed and weighed.
LM-3 human hepatoma cells cryopreserved in liquid nitrogen were recovered, and incubated in a 37 incubator under 5% CO2. Other steps were the same as mentioned in 2-B.

W256 cancer sarcoma = W256 cancer sarcoma transplanted in rats; assay type: in vivo, Wistar rats
Experimental: The injection of the invention (10 g/100 ml), Cyclophosphamide (CTX) and normal saline
W256 cancer sarcoma: inoculated in Wistar rats, 50-60 g, female
Ascitic fluid of rats with well-grown W256 cancer sarcoma was diluted with normal saline to obtain a cell suspension of about 1-2×10^7 cells/ml. Each rat was inoculated with 0.2 ml of the suspension at the right axilla subcutaneously. The rats were grouped randomly next day and began administration. Two weeks later, animals were sacrificed and dissected to take out the tumor block. Weights of tumor were compared between each experimental group and the control group and tumor inhibition rates were calculated.

Weight of animal start/end: end (QGY human hepatoma; 1 mg/kg): 24.5
Weight of animal start/end: start (QGY human hepatoma; 1 mg/kg): 21.5
Weight of animal start/end: end (QGY human hepatoma; 2 mg/kg): 23.2
SMILES: COc1cccc2c1C(=O)c1c(O)c3c(c(O)c1C2=O)C[C@@](O)(C(=O)CO)C[C@@H]3O[C@H]1C[C@H](N)[C@H](O)[C@H](C)O1 [Adriamycin]
Inhibition rate % (QGY human hepatoma; 1 mg/kg): 35.48%
Weight of tumor (g) x ± SD (QGY human hepatoma; 1 mg/kg): 0.742 ± 0.19 g
Inhibition rate % (QGY human hepatoma; 2 mg/kg): 68.87%
Weight of tumor (g) x ± SD (QGY human hepatoma; 2 mg/kg): 0.358 ± 0.12 g

SMILES: N.N.[Cl][Pt][Cl] [Cisplatin]
Inhibition rate % (A549 human lung cancer; 1 mg/kg): 41.07%
Weight of animal (g) start/end: end (A549 human lung cancer; 1 mg/kg): 24.5 g
Weight of animal (g) start/end: start (A549 human lung cancer; 1 mg/kg): 20.3 g
Weight of tumor (g) x ± SD (A549 human lung cancer; 1 mg/kg): 0.772 ± 0.15 g
Inhibition rate % (A549 human lung cancer; 2 mg/kg): 86.03%
Weight of animal (g) start/end: end (A549 human lung cancer; 2 mg/kg): 23.6 g
Weight of animal (g) start/end: start (A549 human lung cancer; 2 mg/kg): 20.3 g
Weight of tumor (g) x ± SD (A549 human lung cancer; 2 mg/kg): 0.183 ± 0.05 g

SMILES: O=C1c2c(O)ccc(O)c2C(=O)c2c(NCCNCCO)ccc(NCCNCCO)c21 [DHAD, Mitoxantrone]
Inhibition rate % (S180 sarcoma; 2 mg/kg): 51.0%
Weight of tumor (g) x ± SD (S180 sarcoma; 2 mg/kg): 0.77 ± 0.19 g

SMILES: CC(=O)O[C@@]12CO[C@@H]1C[C@H](O)[C@@]1(C)C(=O)[C@H](O)C3=C(C)[C@@H](OC(=O)[C@H](O)[C@@H](NC(=O)OC(C)(C)C)c4ccccc4)C[C@@](O)([C@@H](OC(=O)c4ccccc4)[C@H]21)C3(C)C [Docetaxel]
Inhibition rate % [1]: 56.80%
Weight of tumor (g) x ± SD [1]: 1.27 ± 0.88 g

SMILES: Nc1ccn([C@@H]2O[C@H](CO)[C@@H](O)C2(F)F)c(=O)n1 [Gemcitabine, gemcitabine hydrochloride]
Inhibition rate % [2]: 23.04%
Weight of tumor (g) x ± SD [2]: 0.1426 ± 0.078 g

SMILES: CCNC(=O)[C@@H]1CCCN1C(=O)[C@H](CCCNC(=N)N)NC(=O)[C@H](CC(C)C)NC(=O)[C@@H](CC(C)C)NC(=O)[C@H](Cc1ccc(O)cc1)NC(=O)[C@H](CO)NC(=O)[C@H](Cc1c[nH]c2ccccc12)NC(=O)[C@H](Cc1c[nH]cn1)NC(=O)[C@@H]1CCC(=O)N1 [Lupron, Leuprolide acetate]
Inhibition rate % ([3]; 0.75 ml/kg): 35.1%
Weight of tumor (g) x ± SD ([3]; 0.75 ml/kg): 0.98 ± 0.26 g
Inhibition rate % ([3]; 1.5 ml/kg): 47.68%
Weight of tumor (g) x ± SD ([3]; 1.5 ml/kg): 0.79 ± 0.16 g

SMILES: CO[C@@]12[C@H](COC(N)=O)C3=C(C(=O)C(C)=C(N)C3=O)N1C[C@@H]1N[C@@H]12 [MMC, Mitomycin]
Inhibition rate % (S180 sarcoma; 1.5 mg/kg): 39.5%
Weight of tumor (g) x ± SD (S180 sarcoma; 1.5 mg/kg): 0.95 ± 0.16 g

IC50 [5]: 0.49 µg/mL (≈ 0.574 µM)
IC50 [6]: 0.46 µg/mL (≈ 0.539 µM)
IC50 [7]: 0.44 µg/mL (≈ 0.515 µM)
IC50 [8]: 0.45 µg/mL (≈ 0.527 µM)
IC50 [9]: 0.41 µg/mL (≈ 0.48 µM)
IC50 [10]: 0.18 µg/mL (≈ 0.211 µM)
IC50 [11]: 0.22 µg/mL (≈ 0.258 µM)
IC50 [12]: 0.28 µg/mL (≈ 0.328 µM)
SMILES: CC(=O)O[C@H]1C(=O)[C@@]2(C)[C@H]([C@H](OC(=O)c3ccccc3)[C@]3(O)C[C@H](OC(=O)[C@H](O)[C@@H](NC(=O)c4ccccc4)c4ccccc4)C(C)=C1C3(C)C)[C@]1(OC(C)=O)CO[C@@H]1C[C@@H]2O [Taxol, Paclitaxel]
Inhibition rate % [4]: 62.87%

SMILES: O=P1(N(CCCl)CCCl)NCCCO1 (centres unmarked) [cyclophosphamide, Cyclophosphamide]
Inhibition rate % (LM-3 human hepatoma; 15 mg/kg): 27.21%
Weight of animal start/end: end (LM-3 human hepatoma; 15 mg/kg): 25.1
Weight of animal start/end: start (LM-3 human hepatoma; 15 mg/kg): 20.6
Weight of tumor (g) x ± SD (LM-3 human hepatoma; 15 mg/kg): 1.110 ± 0.11 g
Inhibition rate % (LM-3 human hepatoma; 30 mg/kg): 84.13%
Weight of animal start/end: end (LM-3 human hepatoma; 30 mg/kg): 25.6
Weight of animal start/end: start (LM-3 human hepatoma; 30 mg/kg): 20.4
Weight of tumor (g) x ± SD (LM-3 human hepatoma; 30 mg/kg): 0.242 ± 0.11 g
Weight of tumor (g) x ± SD (S180 sarcoma; 30 mg/kg): 0.95 ± 0.22 g
Inhibition rate % (S180 sarcoma; 30 mg/kg, listed as CTX): 39.5%
Weight of tumor (g) x ± SD (W256 cancer sarcoma; 10 mg/kg, iv × 2(3, 5)): 2.07 ± 1.11 g
Inhibition rate % (W256 cancer sarcoma; 10 mg/kg, iv × 2(3, 5), listed as CTX): 38.6%
Inhibition rate % (W256 cancer sarcoma; 30 mg/kg, iv × 7): 88.1** %
Weight of tumor (g) x ± SD (W256 cancer sarcoma; 30 mg/kg, iv × 7): 0.40 ± 0.15 g
